{"source": "patent US20220175809A1", "about": "“TREATMENT AND PREVENTION OF INFECTIONS BY HERPESVIRIDAE WITH DELPHINIDIN-3-GLUCOSIDE” (Evonik Operations GmbH, priority 2019, published 2022)", "key": {"[1]": {"system": "HSV-1", "assay": "Anti-viral assay, GFP-encoding HSV-1 infection of BHK cells (infected cells counted)", "type": "cell-based, herpes simplex virus 1", "details": "BHK cells treated with anthocyanins, then GFP-encoding HSV-1", "description": "(§1) BHK cells were incubated with decreasing concentration of the solubilized test compounds for approx. 1 h. All concentrations were analyzed by six independent replicates on a black 96 well plate (PerkinElmer). Cells were infected with GFP-encoding wildtype HSV-1 virus and incubated for two days. Two days after infection, HSV-1-infected cells and GFP expressing cells were directly counted using the PerkinElmer Ensight system with optical cell culture plates. The instrument was controlled by manual counting. Anti-viral assays for HHV8 were performed accordingly. To not only analyze the virus entry and early phase of virus replication of infection but also later phases of viral replication, the test assay was adjusted accordingly. BHK cells were incubated with test compounds and subsequently infected with HSV-1. Two days after infection supernatants were collected, centrifuged to remove detached cells and used to infect BHK cells. After two additional days infected cells were quantified using the Ensight system.\nThe cells were subsequently infected with GFP-encoding HSV at a multiplicity of infection of 2.5, and infected GFP-expressing cells were counted one day after infection using the PerkinElmer Ensight system. […] Thus, the sugar is not required as potential co-factor for drug uptake."}, "[2]": {"system": "HHV-8", "assay": "Anti-viral assay, GFP-encoding HHV-8 infection (infected cells counted)", "type": "cell-based, Herpes virus 8", "details": "materials adjusted to same anthocyanin levels, counted two days after infection", "description": "as §1\nThe concentrations of materials were again adjusted to the same levels of anthocyanins. No treatment or only maltodextrin served as controls. The cells were subsequently infected with GFP-encoding HHV-8, and infected GFP-expressing cells were counted two days after infection using the PerkinElmer Ensight system. […] The analysis of berry extract analogue without maltodextrin and the maltodextrin control confirmed again that the sugar moiety is not required as potential co-factor for drug uptake."}}}
{"compound": "OC[C@H]1OC(Oc2cc3c(O)cc(O)cc3[o+]c2-c2cc(O)c(O)c(O)c2)[C@H](O)C(O)C1O", "note": "(stereo partly shown) [D3G, Delphinidin-3-glucoside]", "values": [{"measurement": "inhibition of HSV-1 (viral infectivity)", "setting": "[1]", "value": "decreased viral infectivity like Healthberry® 865"}, {"measurement": "suppression of HHV-8 viral infectivity", "setting": "[2]", "value": "identified as an active ingredient"}, {"measurement": "suppression of HHV-8 viral infectivity", "setting": "[2]; listed as D3G derived from red grape extract", "value": "reduced the number of infected cells significantly"}, {"measurement": "suppression of HHV-8 viral infectivity", "setting": "[2]; listed as D3G from Healthberry® 865", "value": "reduced the number of infected cells significantly"}]}
